Test results reported in US20050182128A1, “Use of anethole dithiolethione in lung cancer chemoprevention” (priority 2002, published 2005).
Entries after “also recorded” stand apart in the source; their conditions may differ. Marks after values point to notes of the source that are not given here.

Assays:
[1] = tested on: bronchial dysplasia; test: Phase IIb randomized placebo-controlled trial: histopathology grade of bronchial biopsies before and after six months; assay type: in vivo, human
Procedure: One hundred and one volunteer current and former smokers with ≧30 pack-years smoking history and bronchial dysplasia identified by autofluorescence bronchoscopy directed biopsies were randomly assigned to receive ADT 25 mg orally TID or placebo for six months followed by a repeat bronchoscopy and biopsy of the same sites plus any new areas suspicious of dysplasia. Changes in the histopathology grade of the biopsies were used as the primary endpoint biomarker. All P values were two-sided.
Assessment For Eligibility. Five hundred and fifty-eight current and former smokers over 40 years of age in the Greater Vancouver area with a smoking history of ≧30 pack-years were invited to take part in the study. A former smoker was defined as one who had given up smoking for a year or more. They were recruited through the community outreach network of the public relations department of the British Columbia Cancer Agency (BCCA) using television programs, radio broadcasts and local newspapers. Following an initial interview, which included a questionnaire to document the smoking history, a sputum sample was obtained by induction using simultaneous high frequency chest wall oscillation with the ABI vest (Advanced Respiratory Inc. St. Pauls, Minn.) and 3% hypertonic saline for 12 minutes. […] Of these, 262 agreed to have an autofluorescence bronchoscopy with the LIFE-Lung device (Xillix Technologies Corp., Richmond, BC, Canada) (Lam et al., 1998; Lam et al., 1999). Biopsies were taken from areas with abnormal fluorescence (Lam et al., 1998; Lam et al., 1999). In addition, at least two control biopsies were taken from an upper or lower lobe. The average number of biopsies per subject was 6.7 (range 4 to 12).
Randomization. Participants with one or more sites of bronchial dysplasia were randomly assigned to receive either Sialor® (Solvay Pharma, France) at a dose of 25 mg three times daily by mouth or its placebo for six months. The placebo tablets were identical in size, shape and color to the active drug. Randomization codes were generated by a statistician at the Population and Prevention Oncology Division of BCCA and distributed to the BCCA pharmacy. All study personnel were blinded to the study coeds. Randomization was stratified according to the smoking status (current or former smoker) and dysplasia grade (mild, moderate or severe). Once a participant met the enrollment criteria, the study nurse contacted the pharmacist who then provided the study medication according to the randomization code.
(§1) Follow Up. The participants were seen monthly for examination of drug related adverse events. Liver enzymes were measured at baseline and at months 3 and 6 for toxicity monitoring. Fluorescence bronchoscopy was repeated after 6 months of study medication. The bronchoscopist was blinded to the intervention assignment. All previously biopsied sites were identified and re-biopsied under fluorescence bronchoscopy. Biopsy was also taken from new areas with abnormal fluorescence.
The primary outcome of the study was changes in the histopathology grade of the bronchial biopsies before and after six months of intervention. The secondary endpoint was changes in the nuclear morphometry index of the bronchial biopsies.
The biopsies were fixed in buffered formalin, embedded in paraffin, sectioned and stained with hematoxylin-eosin (H&E). Two pathologists (JCL, AFG) systematically reviewed them. The pathologists were blinded to the treatment assignments. All biopsies were classified into one of seven groups. Normal: as represented by pseudostratified ciliated columnar epithelium. Basal cell hyperplasia: as represented by an increase in the number and stratification of normal-appearing basal cells still covered with normal ciliated or mucin secreting cells. Metaplasia: as represented by a stratified epithelium and cytoplasmic changes consistent with squamoid differentiation. […]

[2] = Phase IIb trial: adverse events and toxicity monitoring; assay type: in vivo, human
Procedure: as §1

[3] = tested on: lipid peroxidation; settings: in-vitro, rat liver microsome model; cited from earlier work
[4] = tested on: nuclear factor NFκB; settings: human Jurkat cells; cited from earlier work
[5] = tested on: human Jurkat cells; settings: pretreatment of human Jurkat cells; cited from earlier work
[6] = tested on: intracellular glutathione; settings: animals pretreated with various toxins and normal animals; cited from earlier work
[7] = tested on: aflatoxin tumorigenicity; settings: rats; cited from earlier work
[8] = 25 mg three times daily; cited from earlier work
[9] = histopathology, lesion specific, 6 months
[10] = histopathology, person specific, of 56

COc1ccc(-c2cc(=S)ss2)cc1 [ADT, 5-(p-methoxyphenyl)-1,2-dithiole-3-thione]
Progression of pre-existing dysplastic lesions and/or appearance of new lesions compared to placebo ([1]; 6 months, 25 mg orally TID): significantly lower rate of progression; also recorded: statistically reduces the appearances of new dysplastic lesion or progression of pre-existing dysplastic lesions
CR or PD rates, full dose compared to reduced dose ([1]; all P-values >0.90): no significant difference in the CR or PD rates
Biopsies of grade 1 (normal/hyperplasia) at 6 months follow-up ([1]; baseline grade 1): 100
Biopsies of grade 2 (metaplasia) at 6 months follow-up ([1]; baseline grade 1): 9
Biopsies of grade 3 (mild dysplasia) at 6 months follow-up ([1]; baseline grade 1): 5
Biopsies of grade 4 (moderate dysplasia) at 6 months follow-up ([1]; baseline grade 1): 2
Biopsies of grade 5 (severe dysplasia) at 6 months follow-up ([1]; baseline grade 1): 0
Biopsies of grade 1 (normal/hyperplasia) at 6 months follow-up ([1]; baseline grade 2): 22
Biopsies of grade 2 (metaplasia) at 6 months follow-up ([1]; baseline grade 2): 2
Biopsies of grade 3 (mild dysplasia) at 6 months follow-up ([1]; baseline grade 2): 3
Biopsies of grade 4 (moderate dysplasia) at 6 months follow-up ([1]; baseline grade 2): 0
Biopsies of grade 5 (severe dysplasia) at 6 months follow-up ([1]; baseline grade 2): 0
Biopsies of grade 1 (normal/hyperplasia) at 6 months follow-up ([1]; baseline grade 3): 53
Biopsies of grade 2 (metaplasia) at 6 months follow-up ([1]; baseline grade 3): 14
Biopsies of grade 3 (mild dysplasia) at 6 months follow-up ([1]; baseline grade 3): 27
Biopsies of grade 4 (moderate dysplasia) at 6 months follow-up ([1]; baseline grade 3): 6
Biopsies of grade 5 (severe dysplasia) at 6 months follow-up ([1]; baseline grade 3): 0
Biopsies of grade 1 (normal/hyperplasia) at 6 months follow-up ([1]; baseline grade 4): 8
Biopsies of grade 2 (metaplasia) at 6 months follow-up ([1]; baseline grade 4): 0
Biopsies of grade 3 (mild dysplasia) at 6 months follow-up ([1]; baseline grade 4): 2
Biopsies of grade 4 (moderate dysplasia) at 6 months follow-up ([1]; baseline grade 4): 3
Biopsies of grade 5 (severe dysplasia) at 6 months follow-up ([1]; baseline grade 4): 1
Biopsies of grade 1 (normal/hyperplasia) at 6 months follow-up ([1]; baseline grade 5): 0
Biopsies of grade 2 (metaplasia) at 6 months follow-up ([1]; baseline grade 5): 0
Biopsies of grade 3 (mild dysplasia) at 6 months follow-up ([1]; baseline grade 5): 2
Biopsies of grade 4 (moderate dysplasia) at 6 months follow-up ([1]; baseline grade 5): 0
Biopsies of grade 5 (severe dysplasia) at 6 months follow-up ([1]; baseline grade 5): 0
Biopsies of grade 1 (normal/hyperplasia) at 6 months follow-up ([1]; baseline: not sampled): 34
Biopsies of grade 2 (metaplasia) at 6 months follow-up ([1]; baseline: not sampled): 8
Biopsies of grade 3 (mild dysplasia) at 6 months follow-up ([1]; baseline: not sampled): 13
Biopsies of grade 4 (moderate dysplasia) at 6 months follow-up ([1]; baseline: not sampled): 0
Biopsies of grade 5 (severe dysplasia) at 6 months follow-up ([1]; baseline: not sampled): 1
CR rate ([1]; dose reduction yes): 24%
PD rate ([1]; dose reduction yes): 32%
PR rate ([1]; dose reduction yes): 32%
CR, number of participants ([1]; dose reduction yes, of 25): 6
PD, number of participants ([1]; dose reduction yes, of 25): 8
PR, number of participants ([1]; dose reduction yes, of 25): 8
PD rate lower than placebo, person specific analysis ([1]; histopathology, 6 months): 22%
Partial response (PR) rate, person specific analysis ([1]; histopathology, 6 months): (23%)
Stable disease (SD) rate, person specific analysis ([1]; histopathology, 6 months): (18%)
Progressive disease (PD) rate, lesion specific analysis ([1]; histopathology, 6 months ADT 25 mg orally TID, placebo 17%, P<0.001): 8%
Complete response (CR) rate, lesion specific analysis ([1]; histopathology, 6 months, placebo 41%, P=0.14): 53%
PD rate lower than placebo, lesion specific analysis ([1]; histopathology, 8% ADT versus 17% placebo): 9%
CR rate higher than placebo, person specific analysis ([1]; histopathology, 27% versus 16%): 11%
CR rate higher than placebo, lesion specific analysis ([1]; histopathology, 53% versus 41%, not significant): 12%
CR lesions / dysplastic lesions at baseline [1, 9]: 61/116
PD lesions / all biopsies [1, 9]: 24/315
CR, number of participants [1, 10]: 15
PD, number of participants [1, 10]: 18
PR, number of participants [1, 10]: 13
Association of treatment with odds of CR ([1]; multiple logistic regression): not significantly associated with increasing odds of CR
OR, likelihood of progressive disease six months after intervention ([1]; multiple logistic regression, ADT is reference, placebo OR 3.5 (95% CI 1.3-9.3, P 0.01)): 1
PD rate ([1]; no dose reduction): 32%
PR rate ([1]; no dose reduction): 16%
CR rate ([1]; no dose reduction (full 25 mg TID)): 29%
CR, number of participants ([1]; no dose reduction (full 25 mg TID), of 31): 9
PD, number of participants ([1]; no dose reduction, of 31): 10
PR, number of participants ([1]; no dose reduction, of 31): 5
Biopsies of grade 1 (normal/hyperplasia) at 6 months follow-up ([1]; total of all baseline grades): 217
Biopsies of grade 2 (metaplasia) at 6 months follow-up ([1]; total of all baseline grades): 33
Biopsies of grade 3 (mild dysplasia) at 6 months follow-up ([1]; total of all baseline grades): 52
Biopsies of grade 4 (moderate dysplasia) at 6 months follow-up ([1]; total of all baseline grades): 11
Biopsies of grade 5 (severe dysplasia) at 6 months follow-up ([1]; total of all baseline grades): 2
Adverse events, overall description ([2]; 25 mg orally TID, six months): mostly minor gastrointestinal symptoms that resolved with dose reduction or discontinuation of the medication; also recorded: only adverse events observed were gastrointestinal
Symptoms significantly more frequent than with placebo ([2]; P=0.018): Only abdominal bloating was significantly more frequent
Subjects with dose reduced to 25 mg BID ([2]; of 56): 17
Subjects with dose reduced to 25 mg QD ([2]; of 56): 4
Constipation ([2]; placebo 0%): 5%
Increased Saliva ([2]; placebo 4%): 2%
Abdominal Bloating ([2]; placebo 4%, P = 0.01 compared to placebo): 25%*
Participants with Grade 3 symptoms ([2]; placebo 6%): 11%
Loose Stool ([2]; placebo 8%): 16%
Diarrhea ([2]; placebo 12%): 13%
Participants with Grade 2 symptoms ([2]; placebo 20%): 51%
Participants requiring dose reduction ([2]; placebo 25%): 45%
Excessive Flatus ([2]; placebo 53%): 93%
Grade 3 elevation of liver enzymes ([2]; returned to normal after discontinuation): One of the participants
Inhibition of lipid peroxidation [3]: potent inhibitor of lipid peroxidation
Modulation of NFκB activation [4]: capable of modulating
Protection against oxidative stress-induced cytotoxicity [5]: significantly protects cells
Intracellular glutathione [6]: increase of intracellular glutathione
Protection against aflatoxin tumorigenicity [7]: protective action against aflatoxin tumorigenicity
Safety and efficacy at therapeutic dose [8]: safe and effective
